Experimental findings from ChEMBL document CHEMBL5712891, “Inhibition of BET bromodomain-dependent XIAP and FLIP expression sensitizes KRAS-mutated NSCLC to pro-apoptotic agents” (Cell Death Dis, 2016) are described below.

The structures appear in SMILES notation. Active and inactive are the calls of the source. The rule behind the calls is not given here.

A short description of data set [1]: Toxicity in SCID mouse xenografted with human A549 cells assessed as body weight loss administered at 50 mg/kg, ip for 28 days relative to control. The class given is organism-based. As to conditions: in vivo, 672 h, time 28 day. For orientation: In xenograft studies the graft and the host belong to different species.
The test system of data set [2] is DV-90. Description: Induction of cell cycle arrest in human DV-90 cells assessed as accumulation of cells at G2/M phase at 1 uM for 24 hrs by Click-iT EdU Alexa Fluor 647 flow cytometric assay kit analysis (reference value: 24%). It is filed as functional. (In general: Flow cytometry measures light scatter and fluorescence of single cells or particles in a stream.)

For data set [3], the system named is DV-90. Put plainly: Induction of apoptosis in human DV-90 cells assessed as necrotic cells at 2.5 uM for 24 hrs by annexin V-PI staining based flow cytometric analysis (reference value: 5.4%). The class given is functional.
The test system of data set [4] is NCI-H1373. Put plainly: Downregulation of FLIP mRNA expression level in human NCI-H1373 cells at 0.1 to 1 uM for 24 hrs by qRT-PCR analysis. The class given is functional, cell-based. As to conditions: dose 0.1-1 µM. On the technique in general: In qPCR the cycle at which signal appears reflects the starting amount.
The next data set deals with NCI-H441. Put plainly: Downregulation of FLIP mRNA expression level in human NCI-H441 cells at 0.1 to 1 uM for 24 hrs by qRT-PCR analysis. It is filed as functional, cell-based. As to conditions: dose 0.1-1 µM.
Data set [5] deals with A549. Description: Induction of cell cycle arrest in human A549 cells assessed as accumulation of cells at S phase at 1 uM for 24 hrs by Click-iT EdU Alexa Fluor 647 flow cytometric assay kit analysis (reference value: 35%). It is filed as functional.
Data set [6] relates to NCI-H1373. Description: Induction of apoptosis in human NCI-H1373 cells assessed as necrotic cells at 2.5 uM for 24 hrs by annexin V-PI staining based flow cytometric analysis (reference value: 5.5%). It is filed as functional.
The subject of data set [7] is A549. Put plainly: Induction of apoptosis in human A549 cells assessed as late apoptotic cells at 1 uM by annexin V-PI based flow cytometric analysis (reference value: 2.5%). It is filed as functional.
The test system of another data set is SK-LU-1. Description: Downregulation of FLIP mRNA expression level in human SK-LU-1 cells at 0.1 to 1 uM for 24 hrs by qRT-PCR analysis. As to conditions: dose 0.1-1 µM. The class given is functional, cell-based.
Data set [8] concerns NCI-H2030. Put plainly: Downregulation of XIAP mRNA expression level in human NCI-H2030 cells at 0.1 to 1 uM for 24 hrs by qRT-PCR analysis. The settings on record: dose 0.1-1 µM. It is filed as functional, cell-based.
In another data set the test system is LCLC-97TM1. Description: Downregulation of c-MYC protein expression level in human LCLC-97TM1 cells at 1 uM for 24 hrs by […] analysis. It is filed as functional, cell-based.
For data set [9], the system named is NCI-H2030. Put plainly: Antiproliferative activity against human NCI-H2030 cells at 500 to 2500 nM in presence of TNF by cell titre glo assay. The class given is functional, cell-based. As to conditions: dose 500-2500 nM.
In another data set the test system is NCI-H1792. Description: Downregulation of c-MYC mRNA expression level in human NCI-H1792 cells at 0.1 to 1 uM for 24 hrs by qRT-PCR analysis. The class given is functional, cell-based. The settings on record: dose 0.1-1 µM.
Data set [10] deals with DV-90. Put plainly: Downregulation of FLIP gene in human DV-90 cells after 24 hrs by microarray profiling analysis. It is filed as functional, cell-based.
Data set [11] deals with A549. Put plainly: Downregulation of c-MYC mRNA expression level in human A549 cells at 0.1 to 1 uM for 24 hrs by qRT-PCR analysis. It is filed as functional, cell-based. As to conditions: dose 0.1-1 µM.
The test system of data set [12] is NCI-H1373. Put plainly: Antitumor activity against human NCI-H1373 cells xenografted in SCID mouse assessed as tumor weight ratio to control at 50 mg/kg, ip measured on after 15 days relative to control. The class given is functional. As to conditions: time 15 day.
In data set [13] the test system is DV-90. Description: Induction of apoptosis in human DV-90 cells assessed as viable cells at 2.5 uM for 24 hrs by annexin V-PI staining based flow cytometric analysis (reference value: 81.5%). It is filed as functional. The settings on record: read-out: Activity.
Data set [14] concerns DV-90. Put plainly: Induction of apoptosis in human DV-90 cells assessed as viable cells at 0.5 uM for 24 hrs by annexin V-PI staining based flow cytometric analysis (reference value: 81.5%). The class given is functional. The settings on record: read-out: Activity.
Data set [15] can be described thus: Toxicity in SCID mouse xenografted with human NCI-H1373 cells assessed as body weight loss at 50 mg/kg, ip measured on after 15 days relative to control. The class given is organism-based. As to conditions: in vivo, 360 h, time 15 day.
Data set [16] has as its system NCI-H1373. Put plainly: Induction of cell cycle arrest in human NCI-H1373 cells assessed as accumulation of cells at S phase at 0.5 uM for 24 hrs by Click-iT EdU Alexa Fluor 647 flow cytometric assay kit analysis (reference value: 45%). The class given is functional.
For data set [17], the system named is A549. Description: Induction of cell cycle arrest in human A549 cells assessed as accumulation of cells at G2/M phase at 0.1 uM for 24 hrs by Click-iT EdU Alexa Fluor 647 flow cytometric assay kit analysis (reference value: 3%). It is filed as functional.
For data set [18], the system named is NCI-H1373. Put plainly: Induction of TRAIL dependent apoptosis in human NCI-H1373 cells assessed as PARP cleavage by Western blot analysis. It is filed as functional, cell-based.
The subject of data set [19] is DV-90. Description: Induction of cell cycle arrest in human DV-90 cells assessed as accumulation of cells at G0/G1 phase at 0.5 uM for 24 hrs by Click-iT EdU Alexa Fluor 647 flow cytometric assay kit analysis (reference value: 45%). The class given is functional.
Data set [20] concerns NCI-H1373. Put plainly: Induction of cell cycle arrest in human NCI-H1373 cells assessed as accumulation of cells at G0/G1 phase at 0.5 uM for 24 hrs by Click-iT EdU Alexa Fluor 647 flow cytometric assay kit analysis (reference value: 48%). The class given is functional.
The subject of data set [21] is DV-90. Description: Induction of cell cycle arrest in human DV-90 cells assessed as accumulation of cells at G2/M phase at 0.5 uM for 24 hrs by Click-iT EdU Alexa Fluor 647 flow cytometric assay kit analysis (reference value: 25%). It is filed as functional.
The subject of the next data set is NCI-H460. Put plainly: Induction of cell cycle arrest in human NCI-H460 cells assessed as accumulation of cells at S phase at 0.5 uM for 24 hrs by Click-iT EdU Alexa Fluor 647 flow cytometric assay kit analysis (reference value: 54%). The class given is functional.
The test system of data set [22] is A549. Description: Induction of apoptosis in human A549 cells assessed as early apoptotic cells at 0.5 uM for 24 hrs by annexin V-PI staining based flow cytometric analysis (reference value: 0.2%). It is filed as functional.
The test system of data set [23] is DV-90. Put plainly: Induction of apoptosis in human DV-90 cells assessed as viable cells at 2.5 uM for 48 hrs by annexin V-PI staining based flow cytometric analysis (reference value: 81.9%). As to conditions: DV-90, 48 h.
Data set [24] concerns DV-90. Description: Induction of cell cycle arrest in human DV-90 cells assessed as accumulation of cells at G0/G1 phase at 0.1 uM for 24 hrs by Click-iT EdU Alexa Fluor 647 flow cytometric assay kit analysis (reference value: 47%). The class given is functional.
In data set [25] the test system is NCI-H1373. Description: Induction of apoptosis in human NCI-H1373 cells assessed as viable cells at 0.5 uM for 24 hrs by annexin V-PI staining based flow cytometric analysis (reference value: 71.6%). It is filed as functional. The settings on record: read-out: Activity.
In data set [26] the test system is DV-90. Description: Induction of cell cycle arrest in human DV-90 cells assessed as accumulation of cells at G0/G1 phase at 1 uM for 24 hrs by Click-iT EdU Alexa Fluor 647 flow cytometric assay kit analysis (reference value: 47%). It is filed as functional.
The subject of data set [27] is DV-90. Put plainly: Induction of cell cycle arrest in human DV-90 cells assessed as accumulation of cells at G2/M phase at 0.25 uM for 24 hrs by Click-iT EdU Alexa Fluor 647 flow cytometric assay kit analysis (reference value: 21%). The class given is functional.
Data set [28] relates to A549. Put plainly: Induction of apoptosis in human A549 cells assessed as necrotic cells at 0.5 uM for 24 hrs by annexin V-PI staining based flow cytometric analysis (reference value: 0.9%). It is filed as functional.

What is called T/C is the ratio of treated to control. On to `Cc1sc2c(c1C)C(c1ccc(Cl)cc1)=N[C@@H](CC(=O)OC(C)(C)C)c1nnc(C)n1-2`, for which the Activity in data set [1] is recorded as 5%; with DV-90 [2] it was 27%; with DV-90 [3], 31%; in the data set with A549 [5], 32%; in the data set with NCI-H1373 [6], 17.2%; with A549 [7], 1.2%. Further, the Activity in [15] is reported as 5%; with NCI-H1373 [16], 12%; in the data set with A549 [17] it was 2%. Further, the result in the data set on NCI-H1373 [4], in the data set on NCI-H441, with SK-LU-1, with NCI-H2030 [8], with LCLC-97TM1 and in the data set on NCI-H2030 [9] was Active. In addition, the outcome in the data set with NCI-H1792, in the data set on DV-90 [10], in the data set with A549 [11] and in the data set on NCI-H1373 [18] was Active. The T/C with NCI-H1373 [12] was found to be 32%. Also, the viability at 2.5 µM in the data set on DV-90 [13] came to 50.7%. In addition, the viability at 0.5 µM with DV-90 [14] stood at 61.3%.

As for `CCNC(=O)C[C@@H]1N=C(c2ccc(Cl)cc2)c2cc(OC)ccc2-n2c(C)nnc21` [MOLIBRESIB], the Activity worked out at 47% in the data set with DV-90 [19], 73% with NCI-H1373 [20], 30% with DV-90 [21] and 46% in the data set with NCI-H460.

`Cc1sc2c(c1C)C(c1ccc(Cl)cc1)=N[C@@H](CC(=O)Nc1ccc(O)cc1)c1nnc(C)n1-2` [BIRABRESIB]: the Activity in the data set on A549 [22] stood at 0.1%; in the data set with DV-90 [24], 50%; with DV-90 [26], 60%; in the data set on DV-90 [27] it was 26%; with A549 [28], 0.7%. Besides, in the data set with DV-90 [23], the viability at 2.5 µM worked out at 49.4%. Besides, in the data set on NCI-H1373 [25], the viability at 0.5 µM is 67.4%.
